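Method: 48-hour compound exposure of cells in 96-well plates, five concentrations, linear interpolation of endpoints. Here, GI50 denotes the concentration required for 50% inhibition of growth. At the TGI there is no net growth.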
Columns and labels:
Test in all cases: inhibition of tumour cell growth, NCI panel, 48 h
[1] = system: T-47D breast
[2] = system: UACC-62 melanoma
[3] = system: A549 NSCLC
[4] = system: NCI-H522 lung
[5] = system: SN12C renal
[6] = system: ACHN renal
[7] = system: SK-MEL-5 melanoma
[8] = system: RXF 393 renal

| SMILES | GI50 [1] [µM] | TGI [1] [µM] | GI50 [2] [µM] | TGI [2] [µM] | GI50 [3] [µM] | TGI [3] [µM] | GI50 [4] [µM] | TGI [4] [µM] | GI50 [5] [µM] | TGI [5] [µM] | GI50 [6] [µM] | TGI [6] [µM] | GI50 [7] [µM] | TGI [7] [µM] | GI50 [8] [µM] | TGI [8] [µM] |
| --- | --- | --- | --- | --- | --- | --- | --- | --- | --- | --- | --- | --- | --- | --- | --- | --- |
| COc1cc2c3c(n(CCCN=[N+]=[N-])c(=O)c2cc1OC)-c1ccccc1C3=O | > 100 | > 100 | 2.63 | 27.6 | 26.2 | > 100 | 44.8 | > 100 | 13.7 | > 100 | 1.21 | 4.65 | 3.17 | 9.25 | – | – |
| COc1ccc(OC)c(N2CC(O)=C(c3nc4ccccc4s3)C2=N)c1 | > 100 | > 100 | 26.4 | > 100 | 71.2 | > 100 | 17.9 | 78.1 | 58 | > 100 | 51.6 | > 100 | 14.7 | 46.6 | 95 | > 100 |
| COc1cc(-n2cc(-c3ccc(Cl)cc3)n(-c3ccccc3)c2=O)cc(OC)c1OC | 8.01 | 74 | 4.92 | 28.2 | 19.3 | > 100 | 18.3 | > 76 | 23.3 | > 72.5 | 25.8 | > 100 | 3.99 | 17.7 | 24.5 | > 100 |
| c1cc(OCCN2CCCC2)ccc1CNc1ccc2nc(CCC3CCCCC3)[nH]c2c1 | 1.81 | 4.9 | 1.85 | 3.33 | 2.47 | 7.52 | 2.1 | 4.47 | 2.08 | 8.21 | 2.29 | 5.99 | 1.68 | 3.1 | 1.32 | 3.23 |
| COc1ccc(-c2cnc(-c3ccc(OC)cc3)n2-c2cc(OC)c(OC)c(OC)c2)cc1 | 39.4 | > 100 | 17.3 | 45 | 23.1 | 82.2 | 29.5 | > 100 | 20.8 | 56.7 | – | – | 22.7 | 67.4 | 14 | 35.9 |
| O=C1OC2(c3ccc(O)cc3Oc3cc(O)ccc32)c2cccc3cccc1c23 | 28.6 | 99.6 | 17.3 | 42.5 | 19.7 | 39.8 | 17.5 | 43.7 | 22.1 | 82.9 | 16.7 | 44 | 14.6 | 28 | 13.8 | 26.9 |
| COC(=O)[C@H](Cc1cn(C)cn1)NC(=O)[C@H](CC(C)C)NC(=O)Nc1cc(C(F)(F)F)cc(C(F)(F)F)c1 | 6.56 | > 10 | > 10 | > 10 | – | – | – | – | 6.69 | > 10 | > 10 | > 10 | > 10 | > 10 | 3.46 | > 10 |
| COc1ccc(C)c2sc(N(Cc3cccnc3)C(=O)c3ccc(C#N)cc3)nc12 | 26.1 | > 100 | 31.1 | > 100 | 43.6 | > 100 | 29.7 | > 100 | 44.2 | > 100 | 34.7 | > 100 | 24.4 | 93.8 | 26.1 | 99.8 |
